Results reported in patent publication CN114767685A, “四氢叶酸在抑菌或者预防或治疗眼部疾病中的用途” (Peking University Third Hospital Peking University Third …, priority 2022, dated 2022).

Experiments:
Fusarium (镰刀菌) [1] = assay: Inhibition of Fusarium colony growth on solid medium with proline as sole nitrogen source (pro- medium); type: cell-based, Fusarium (CGMCC3.5840); details: 29℃, 72 h, Figure 2
Fusarium (镰刀菌) [2] = assay: Inhibition of Fusarium on solid media with mixed amino acids as nitrogen source (simulated cornea); type: cell-based; details: THFA 10 mM, cultured as Example 1
Fusarium (镰刀菌) [3] = assay: Fusarium growth curve (OD) in liquid amino acid media, 96-well plate; type: cell-based; details: THFA 10 mM, each amino acid group, 29℃, 72 h, Figure 5B-F

## Nc1nc2c(c(=O)[nH]1)N[C@H](CNc1ccc(C(=O)N[C@@H](CCC(=O)O)C(=O)O)cc1)CN2 [THFA, 5,6,7,8-四氢叶酸]
Fusarium (镰刀菌) [1]; THFA 0-20 mM
  correlation of degree of inhibition with THFA concentration: 抑制程度与THFA浓度具有相关性
Fusarium (镰刀菌) [1]; THFA 5 mM
  colony diameter: 明显小于2.5mM、1.25mM和0mM组
Fusarium (镰刀菌) [1]; THFA 10 mM
  colony diameter: 均显著小于5mM组
Fusarium (镰刀菌) [1]; THFA 20 mM
  colony diameter: 均显著小于5mM组
Fusarium (镰刀菌) [1]; THFA 1.25, 2.5, 5, 10, 20 mM vs 0 mM
  inhibition of Fusarium growth: 镰刀菌的生长受到明显抑制
Fusarium (镰刀菌) [2]; solid media with different mixed amino acid nitrogen sources (taurine, glutamine, glycine, proline), Figure 4
  inhibition of Fusarium growth: 均能够显著抑制镰刀菌生长
Fusarium (镰刀菌) [2]; solid media with different mixed amino acids, Figure 4B-D
  colony pigment: 色素明显减弱
Fusarium (镰刀菌) [3]
  Fusarium growth (absorbance, OD, growth curve): 镰刀菌生长均明显下降
